From EPA's ToxValDB 9.5 (doi:10.2903/j.efsa.2006.53r)
Converted amounts (≈) assume the structure as drawn.

Key:
[1] = system: Tagia sp.; details: acute; mortality
[2] = system: Oncorhynchus mykiss
[3] = system: Apis mellifera; details: acute, mortality
[4] = system: Canidae; details: Dog Other, organ weight
[5] = system: Colinus virginianus; details: for LD50: acute, oral, mortality
[6] = system: Rattus norvegicus
[7] = system: Daphnia magna
[8] = system: Aphidius rhopalosiphi; details: not reported; mortality

COCC(C)N(C(=O)CCl)c1c(C)csc1C (stereo unspecified) [Dimethenamid]
LC50 [1]: 294 mg/kg
LC50 ([2]; acute, duration: 96 hours, mortality): 2.6 µg/mL (≈ 9.43 µM)
NOEC ([2]; chronic/long-term, duration: 90 days, growth): 0.12 mg/L
LD50 ([3]; duration: 48 hours, dermal): 94 µg/piece
LD50 ([3]; oral, unspecified): 1000 µg/piece
NOAEL ([4]; chronic, duration: 1 years): 2 mg/kg-day
NOAEL ([4]; subchronic, duration: 90 days): 4.3 mg/kg-day
LD50 ([5]; diet): 1200 mg/kg
LD50 [5]: 1910 mg/kg
NOAEL ([5]; reproduction developmental): 114 mg/kg-day
LD50 ([6]; acute, oral, mortality): 397 mg/kg
NOAEL ([6]; reproduction developmental, growth): 33.3 mg/kg-day
NOAEL ([6]; short-term, duration: 4 days, oral, gavage, organ weight): 25 mg/kg-day
LC50 ([7]; acute, duration: 48 hours, mortality): 12 µg/mL (≈ 43.5 µM)
NOEC ([7]; chronic/long-term, duration: 21 days): 0.68 mg/L
LEL [8]: 1010 g/ha
